Results taken from ChEMBL document CHEMBL3045104, “Synthesis and antibacterial activity of 4-benzoyl-1-(4-carboxy-phenyl)-5-phenyl-1H-pyrazole-3-carboxylic acid and derivatives” (2009).
≈ marks a conversion by molar mass, not a printed value. Calls of active or inactive are those of the source. The calls are words filed in the database; no cut-off is given here.

How the values were obtained:
Format in all cases: functional
Bacillus subtilis = test: Antimicrobial activity against Bacillus subtilis ATCC 6633 after overnight incubation by microdilution broth susceptibility assay
Enterococcus faecalis = test: Antimicrobial activity against Enterococcus faecalis ATCC 29122 after overnight incubation by microdilution broth susceptibility assay
Streptococcus pyogenes = test: Antimicrobial activity against Streptococcus pyogenes ATCC 176 after overnight incubation by microdilution broth susceptibility assay
Xanthomonas campestris = test: Antimicrobial activity against Xanthomonas campestris A235 after overnight incubation by microdilution broth susceptibility assay
Salmonella enteritidis = test: Antimicrobial activity against Salmonella enterica subsp. enterica serovar Enteritidis ATCC 1376 after overnight incubation by microdilution broth susceptibility assay
Staphylococcus aureus = test: Antimicrobial activity against Staphylococcus aureus ATCC 29213 after overnight incubation by microdilution broth susceptibility assay
Proteus vulgaris = test: Antimicrobial activity against Proteus vulgaris Kuk. 1329 after overnight incubation by microdilution broth susceptibility assay
Klebsiella pneumoniae = test: Antimicrobial activity against Klebsiella pneumoniae A137 after overnight incubation by microdilution broth susceptibility assay
Pseudomonas aeruginosa = test: Antimicrobial activity against Pseudomonas aeruginosa ATCC 9027 after overnight incubation by microdilution broth susceptibility assay
Escherichia coli = test: Antimicrobial activity against Escherichia coli B3704 after overnight incubation by microdilution broth susceptibility assay

| Compound | MIC (Bacillus subtilis) | MIC (Enterococcus faecalis) | MIC (Streptococcus pyogenes) | MIC (Xanthomonas campestris) | MIC (Salmonella enteritidis) | MIC (Staphylococcus aureus) | MIC (Proteus vulgaris) | MIC (Klebsiella pneumoniae) [µM] | MIC (Pseudomonas aeruginosa) | MIC (Escherichia coli) [µM] |
| --- | --- | --- | --- | --- | --- | --- | --- | --- | --- | --- |
| COC(=O)c1ccc(-n2nc(C(=O)OC)c(C(=O)c3ccccc3)c2-c2ccccc2)cc1 | 290 µM (≈ 128 µg/mL) | inactive | inactive | inactive | inactive | inactive | inactive | 145 (≈ 63.9 µg/mL) | inactive | 145 (≈ 63.9 µg/mL) |
| O=C(O)c1ccc(-n2nc3c(=O)n(-c4ccc(C(=O)O)cc4)nc(-c4ccccc4)c3c2-c2ccccc2)cc1 | 242 µM (≈ 128 µg/mL) | inactive | inactive | inactive | inactive | inactive | inactive | 121 (≈ 64 µg/mL) | 242 µM (≈ 128 µg/mL) | 121 (≈ 64 µg/mL) |
| O=C(N[C@H](CO)[C@H](O)c1ccc([N+](=O)[O-])cc1)C(Cl)Cl [CHLORAMPHENICOL] | 74 µM (≈ 23.9 µg/mL) | 37 µM (≈ 12 µg/mL) | 37 µM (≈ 12 µg/mL) | 37 µM (≈ 12 µg/mL) | 74 µM (≈ 23.9 µg/mL) | 19 µM (≈ 6.14 µg/mL) | 74 µM (≈ 23.9 µg/mL) | 37 (≈ 12 µg/mL) | 74 µM (≈ 23.9 µg/mL) | 19 (≈ 6.14 µg/mL) |
| CNC(=O)NC(=O)c1ccc(-n2nc(C(=O)NC(=O)NC)c(C(=O)c3ccccc3)c2-c2ccccc2)cc1 | 244 µM (≈ 128 µg/mL) | inactive | inactive | inactive | inactive | inactive | inactive | 122 (≈ 64 µg/mL) | inactive | 122 (≈ 64 µg/mL) |
| N#Cc1ccc(-n2nc(C#N)c(C(=O)c3ccccc3)c2-c2ccccc2)cc1 | 171 µM (≈ 64 µg/mL) | inactive | inactive | 342 µM (≈ 128 µg/mL) | inactive | inactive | inactive | 171 (≈ 64 µg/mL) | inactive | 171 (≈ 64 µg/mL) |
| O=C(Cl)c1ccc(-n2nc(C(=O)Cl)c(C(=O)c3ccccc3)c2-c2ccccc2)cc1 | inactive | inactive | inactive | 285 µM (≈ 128 µg/mL) | inactive | inactive | inactive | 142 (≈ 63.8 µg/mL) | inactive | 142 (≈ 63.8 µg/mL) |
| O=C(NC(=O)c1ccc(-n2nc(C(=O)NC(=O)Nc3ccccc3)c(C(=O)c3ccccc3)c2-c2ccccc2)cc1)Nc1ccccc1 | 197 µM (≈ 128 µg/mL) | inactive | inactive | inactive | inactive | inactive | inactive | 99 (≈ 64.2 µg/mL) | inactive | 99 (≈ 64.2 µg/mL) |
| O=C(O)c1ccc(-n2nc(C(=O)O)c(C(=O)c3ccccc3)c2-c2ccccc2)cc1 | 310 µM (≈ 128 µg/mL) | inactive | inactive | 78 µM (≈ 32.2 µg/mL) | inactive | 310 µM (≈ 128 µg/mL) | inactive | 155 (≈ 63.9 µg/mL) | inactive | 155 (≈ 63.9 µg/mL) |
| CCCCOC(=O)c1ccc(-n2nc(C(=O)OCCCC)c(C(=O)c3ccccc3)c2-c2ccccc2)cc1 | 122 µM (≈ 64 µg/mL) | inactive | inactive | 244 µM (≈ 128 µg/mL) | inactive | inactive | inactive | 122 (≈ 64 µg/mL) | inactive | 122 (≈ 64 µg/mL) |
| CCNC(=O)c1ccc(-n2nc(C(=O)NCC)c(C(=O)c3ccccc3)c2-c2ccccc2)cc1 | 274 µM (≈ 128 µg/mL) | inactive | inactive | 274 µM (≈ 128 µg/mL) | inactive | inactive | inactive | 137 (≈ 63.9 µg/mL) | inactive | 137 (≈ 63.9 µg/mL) |
| CCCCCNC(=O)c1ccc(-n2nc(C(=O)NCCCCC)c(C(=O)c3ccccc3)c2-c2ccccc2)cc1 | 232 µM (≈ 128 µg/mL) | inactive | inactive | inactive | inactive | inactive | inactive | 116 (≈ 63.9 µg/mL) | inactive | 116 (≈ 63.9 µg/mL) |
| CC(C)OC(=O)c1ccc(-n2nc(C(=O)OC(C)C)c(C(=O)c3ccccc3)c2-c2ccccc2)cc1 | 129 µM (≈ 64.1 µg/mL) | inactive | inactive | 258 µM (≈ 128 µg/mL) | inactive | inactive | inactive | 129 (≈ 64.1 µg/mL) | inactive | 129 (≈ 64.1 µg/mL) |
| O=C(O)c1ccc(-n2nc3c(=O)[nH]nc(-c4ccccc4)c3c2-c2ccccc2)cc1 | 313 µM (≈ 128 µg/mL) | inactive | inactive | 313 µM (≈ 128 µg/mL) | inactive | inactive | 157 µM (≈ 64.1 µg/mL) | 157 (≈ 64.1 µg/mL) | 157 µM (≈ 64.1 µg/mL) | 157 (≈ 64.1 µg/mL) |

Second part, the molecule after the results:

| MIC (Bacillus subtilis) | MIC (Enterococcus faecalis) | MIC (Streptococcus pyogenes) | MIC (Xanthomonas campestris) | MIC (Salmonella enteritidis) | MIC (Staphylococcus aureus) | MIC (Proteus vulgaris) | MIC (Klebsiella pneumoniae) [µM] | MIC (Pseudomonas aeruginosa) | MIC (Escherichia coli) [µM] | Compound |
| --- | --- | --- | --- | --- | --- | --- | --- | --- | --- | --- |
| 137 µM (≈ 64.2 µg/mL) | inactive | inactive | inactive | inactive | inactive | inactive | 137 (≈ 64.2 µg/mL) | inactive | 137 (≈ 64.2 µg/mL) | CCOC(=O)c1ccc(-n2nc(C(=O)OCC)c(C(=O)c3ccccc3)c2-c2ccccc2)cc1 |
| inactive | inactive | inactive | inactive | inactive | inactive | inactive | 117 (≈ 63.9 µg/mL) | inactive | 117 (≈ 63.9 µg/mL) | O=C(O)c1ccc(N/N=C(\c2ccccc2)c2c(-c3ccccc3)nn(-c3ccc(C(=O)O)cc3)c(=O)c2O)cc1 |
| 303 µM (≈ 128 µg/mL) | inactive | inactive | 303 µM (≈ 128 µg/mL) | inactive | inactive | inactive | 152 (≈ 64.2 µg/mL) | 303 µM (≈ 128 µg/mL) | 152 (≈ 64.2 µg/mL) | Cn1nc(-c2ccccc2)c2c(-c3ccccc3)n(-c3ccc(C(=O)O)cc3)nc2c1=O |
| 264 µM (≈ 128 µg/mL) | inactive | inactive | 264 µM (≈ 128 µg/mL) | inactive | inactive | inactive | 132 (≈ 64 µg/mL) | 132 µM (≈ 64 µg/mL) | 132 (≈ 64 µg/mL) | O=C(O)c1ccc(-n2nc3c(=O)n(-c4ccccc4)nc(-c4ccccc4)c3c2-c2ccccc2)cc1 |
| inactive | inactive | inactive | inactive | inactive | inactive | inactive | 156 (≈ 64 µg/mL) | inactive | 156 (≈ 64 µg/mL) | NC(=O)c1ccc(-n2nc(C(N)=O)c(C(=O)c3ccccc3)c2-c2ccccc2)cc1 |
| 189 µM (≈ 128 µg/mL) | inactive | inactive | inactive | inactive | inactive | inactive | 95 (≈ 64.3 µg/mL) | inactive | 95 (≈ 64.3 µg/mL) | O=C(NCc1ccccc1)NC(=O)c1ccc(-n2nc(C(=O)NC(=O)NCc3ccccc3)c(C(=O)c3ccccc3)c2-c2ccccc2)cc1 |
| 245 µM (≈ 128 µg/mL) | inactive | inactive | 245 µM (≈ 128 µg/mL) | inactive | inactive | inactive | 123 (≈ 64.3 µg/mL) | inactive | 123 (≈ 64.3 µg/mL) | CCN(CC)C(=O)c1ccc(-n2nc(C(=O)N(CC)CC)c(C(=O)c3ccccc3)c2-c2ccccc2)cc1 |
